In patent publication US10596224B2, “Method of treating a wound, comprising the step of administering a composition including a substance P” (Biosolution Co., Ltd, priority 2016, dated 2020):
“Also recorded” adds a separate entry of the source. Where two headings read alike, the source gives them in different places.

Assays:
[1] = test system: full-thickness skin wound models; test: Angiogenic effect in skin wound mouse model; type: in vivo, BALB/c female mice; details: biopsy 6 days after administration, FIG. 5
Source text: In detail, increased angiogenesis was confirmed by examining an image of angiogenesis on the skin tissue with the naked eye after biopsy of the skin tissue of the wound area 6 days after administration of the novel formulations.

[2] = Stability of SP at different storage temperatures (SP ELISA kit); type: physicochemical; details: stored at 60° C., 37° C., RT, and 4° C. for 4 weeks
Description: Further, it was examined with respect to whether SP stability in each sample was maintained at different temperatures. […] The samples before storage were used as control groups. SP stability was analyzed using SP ELISA kit.

[3] = Stability of SP over time in cell growth media KGM and FGM (SP ELISA kit); type: physicochemical; details: stored in KGM and FGM media, 0-24 hrs
Description: SP and SP of SP+HEC+polysorbate 80+sodium thiosulfate formulation were stored in cell growth media for human epithelial keratinocyte (HEK) culture (keratinocyte growth media; KGM) and human dermal fibroblast (HDF) culture (fibroblast growth media; FGM).
Each sample was taken out of the media after a predetermined period of time (0 hr, 3 hrs, 6 hrs, 12 hrs and 24 hrs), and diluted with phosphate buffered saline, and then the SP content in each sample was analyzed using SP ELISA kit.

[4] = test system: human dermal fibroblast cells; details: for cell proliferation rate: 48 hours, MTT
Description: The cell proliferative effect of SP was analyzed by MTT assay.
In detail, 100 μl of a human dermal fibroblast cell suspension of 3×10^4 CFU/ml was put in a 96-well culture plate, and incubated for 24 hours. FGM medium (fibroblast growth medium; fibroblast basal medium containing hFGF-B, insulin, fetal bovine serum (FBS), gentamicin, and amphotericin-B) were removed, and then 180 μl of fresh FGM medium was dispensed into each well, and then 20 μl of SP diluted with phosphate buffered saline (PBS) was inoculated by varying its concentration (0.1, 1, 5, 10, 50, and 100 μg/ml).
Meanwhile, 20 μl of phosphate buffered saline was used as a negative control group. After inoculation, cells were incubated at 37° C. for 48 hours, and then the medium, SP, and negative control group were removed. The cells were washed with the phosphate buffered saline three times. 90 μl of FGM medium was mixed with 10 μl of MTT solution (0.5 mg/ml), and treated to each well, and allowed to react at 37° C. for 4 hours.
Finally, the cells were washed with the phosphate buffered saline, and stirred in 150 μl of isopropyl alcohol solution for 10 minutes, and absorbance at 570 nm was measured.

[5] = test system: full-thickness skin wound models; test: Epidermal regeneration effect (epidermal gaps, H&E) in skin wound mouse model; type: in vivo, BALB/c female mice; details: 6 days after administration, compared to the control groups
Source text: (§1) Commercially available wound healing agents, Madecassol care ointment (Dongguk Pharmaceuticals, Korea) and Easyef cell regenerating ointment (Daewoong Pharmaceuticals) were used as positive control groups.
(§2) In detail, 7-week-old BALB/c female mice (DooYeol Biotech) were acclimated for 1 week, and then anesthetized by an intraperitoneal injection of a mixture of Ketamine and rumpun. The dorsal hair was removed using an electric razor and a hair removal cream (Veet). Povidone and 70% ethanol were used to disinfect the area from which the epidermis was to be removed, and a 5-mm biopsy punch was used to apply a full-thickness wound on both sides of the lower buttocks, while avoiding the spine of the mouse. To prevent spontaneous wound contraction by the superficial muscle of the mouse, a silicone ring with an outer diameter of 15 mm and an inner diameter of 8 mm was attached around the wounded area using suture threads.
(§3) Thereafter, to the wound site, phosphate buffered saline as the negative control was administered, and Madecassol care and Easyef cell regenerating ointments as the positive controls were administered. […] Specifically, each 30 μl of SP and each novel formulations were administered to the full-thickness wound once a day for 5 days.

[6] = test system: full-thickness skin wound models; test: Wound size-reducing effect in skin wound mouse model; type: in vivo, BALB/c female mice; details: 6 days after administration
Source text: as §1, §2
Thereafter, to the wound site, phosphate buffered saline as the negative control was administered, and Madecassol care and Easyef cell regenerating ointments as the positive controls were administered. […]
In detail, the reduced wound size was calculated as the size of wound area by analyzing an image of the wound at 0 day and 6 days after administration of the novel formulations. The size of wound area was quantified by using Photoshop.

[7] = test system: full-thickness skin wound models; test: Granulation tissue maturation (H&E) in skin wound mouse model; type: in vivo, BALB/c female mice; details: 6 days after administration, compared to the negative control group
Source text: as §1, §2, §3

CSCC[C@H](NC(=O)[C@H](CC(C)C)NC(=O)CNC(=O)[C@H](Cc1ccccc1)NC(=O)[C@H](Cc1ccccc1)NC(=O)[C@H](CCC(N)=O)NC(=O)[C@H](CCC(N)=O)NC(=O)[C@@H]1CCCN1C(=O)[C@H](CCCCN)NC(=O)[C@@H]1CCCN1C(=O)[C@@H](N)CCCNC(=N)N)C(N)=O [SP]
angiogenesis on the skin tissue (naked eye) [1]: insignificant
SP content according to temperature conditions (SP stability) [2]: lower SP content than the SP+HEC+polysorbate 80+sodium thiosulfate formulation; also recorded: changes in the SP content according to temperature changes
SP content over time (SP stability) [3]: reduction in the SP content over time
cytotoxicity [4]: without cytotoxicity
cell proliferation rate ([4]; SP 5 μg/ml): ≥ 200%
proliferation rate compared to the negative control group ([4]; SP 5 μg/ml, negative control phosphate buffered saline): ≥ 2.2 times
cell proliferation rate ([4]; all concentration groups of 0.1 μg/ml to 100 μg/ml SP): ≥ 170%
epidermal gaps [5]: about 60%
size of the wound examined with the naked eye [6]: no significant difference in the wound size; also recorded: slight difference
wound area (size of wound area quantified) ([6]; 30 μl once a day for 5 days, topical to wound): ≥ 40%
granulation tissue maturation [7]: compact granulation tissue formation
